Experimental data published in PMC10634346 (Cancer Research Communications, 2023).
Read-outs that look alike come from different tables or passages of the source.

How the values were obtained:
MYC mRNA in whole blood = MYC mRNA in whole blood of patients (RNA-seq, PK/PD modeling); format: in vivo, human; conditions: for maximum extent of inhibition for MYC mRNA: C1D1, 30 mg; for MYC mRNA downregulation: C1D15, third weekly 30 mg dose; for mean fold change mRNA levels of MYC: after C1D1 dose; for mean fold change mRNA levels of MYC / MYC mRNA fold change: RNA-seq; for MYC mRNA fold change: after C1D15 dose
Procedure: (§1) Total RNA was extracted from blood of patients and cell lines using RNeasy Plus Mini Kit (QIAGEN, #74136) and cDNA prepared with the Maxima First Strand cDNA Synthesis Kit for RT-PCR (Thermo Fisher Scientific, K1642) according to manufacturer's instructions. The integrity of purified total RNA was evaluated using an Agilent 2100 Bioanalyzer system and RNA 6000 Nano Kit (Agilent, #5067-1511). Differential gene expression analysis was performed (Fios Genomics) from RNA-seq data (Discovery Life Sciences). MYC and MCL1 mRNA levels were measured by qPCR in vitro and in vivo, using a Taqman qPCR system (Thermo Fisher Scientific), TaqMan Fast Universal PCR Master Mix (2X) no AmpErase (#4352042) and TaqMan probes for MYC (Hs00153408_m1) and MCL1 (Hs03043899_m1). RNA-seq data were analyzed using DESeq2 ([35]).
(§2) Fifteen patients with refractory or relapsed DH-DLBCL or other MYC+ NHL were treated with enitociclib (30 mg, 21-day cycle, once weekly x3) as a 30-minute intravenous infusion on study days 1, 8, and 15 (NCT02635672). Longitudinal gene expression levels were analyzed by RNA-seq, and enitociclib plasma concentrations were measured using LC/MS-MS. The clinical study protocol was approved by the Institutional Review Board of participating institutions and complied with the Declaration of Helsinki, current Good Clinical Practice guidelines, and local laws and regulations. Written informed consent was provided by all participants prior to the initiation of any study-specific procedure.
(§3) All pharmacokinetic parameters were calculated by noncompartmental methods as described previously ([36]) using WinNonlin v5.3 (Certara LP). Pharmacokinetic/pharmacodynamic modeling was performed using SAAM II v2.3.2 (The Epsilon Group). Pooled pharmacokinetic data from all patients [n = 15 for single dose, cycle 1 day 1 (C1D1) and n = 11 for multiple doses, cycle 1 day 15 (C1D15)] were characterized using a one-compartment model with intravenous dosing. Subsequently, the pharmacokinetic/pharmacodynamic relationship of enitociclib plasma concentrations to MCL1 and MYC mRNA change was characterized using an indirect response model ([37]) on pooled biomarker data where enitociclib concentrations inhibit the formation of MCL1 or MYC mRNA as described by the following equation: […]
PD is defined as MCL1 or MYC mRNA expression level as a percentage from baseline, t (h) is the time, kin (1/h) is the formation rate of MCL1 or MYC, IC50 (µg/L) is the enitociclib concentration where there is 50% inhibition of PD, kout (h^−1) is the rate constant describing the loss of PD, and n is the hill coefficient. At homeostasis, kin = kout (PD); therefore, kout was replaced by kin/(PD)initial where (PD)initial is equal to 100%. Estimates of pharmacokinetic and pharmacodynamic parameters from pharmacokinetic/pharmacodynamic modeling of pooled data are presented as the estimate followed by CV in parentheses.
RNA-seq data generated from the analysis of two cell lines treated with the three CDK9 inhibitors was analyzed to investigate the differences in gene expression levels between various posttreatment timepoints and the pretreatment samples. Quality control assessment and exploratory data analysis by principal component analysis (PCA) were done on raw counts and on normalized count data. Normalization of RNA-seq count data was done using trimmed mean of M-values normalization and transformed with voom, resulting in log2 counts per million with associated precision weights. […] Significance values (Padj) were adjusted for multiple testing, by controlling the FDR using the Benjamini–Hochberg procedure. […] RNA-seq data generated from blood samples taken from patients before and after their first dose (C1D1) or after multiple doses, before and after their third dose (C1D15) were analyzed and normalized using the same pipeline as cell lines for comparisons.

[1] = Clinical pharmacokinetics, plasma LC/MS-MS (NCT02635672); format: in vivo, human; conditions: for Cmax / half-life: human, plasma
Procedure: as §2, §3

[2] = tested on: MCL1 mRNA in SU-DHL-10 tumors; assay: Pharmacodynamics in SU-DHL-10 xenograft tumors, MCL1 mRNA qPCR; format: in vivo, C.B-17 SCID mice; conditions: single dose; depletion sustained for 8 hours postdose at the two higher dose levels
Procedure: as §1
A total of 10 × 10^6 SU-DHL-10 cells were inoculated subcutaneously into 6–8 weeks old female C.B-17 SCID mice (Iffa Credo, Brussels). The mice were randomized to treatment groups at a tumor volume of 63–104 mm^3 and treated (intravenously, once weekly) with 10 mg/kg enitociclib (60% PEG400, 10% ethanol, water), 15 mg/kg enitociclib (30% PEG400, 10% ethanol, water), or corresponding vehicle treatments. Mice were around 10–12 weeks of age at the start of study. All animal experiments were performed under the national animal welfare laws of Germany and approved by the local authorities.

## COc1cc(F)ccc1-c1cc(Nc2cc(CS(C)(=N)=O)ccn2)ncc1F (stereo not drawn) [enitociclib]
MYC mRNA in whole blood; other MYC+ NHL (n = 5), range 69.9%–90.5%
  maximum extent of inhibition for MYC mRNA: 82.3%
MYC mRNA in whole blood; patients with DH-DLBCL (n = 10), range 73.6%–94.8%
  maximum extent of inhibition for MYC mRNA: 89.6%
MYC mRNA in whole blood; DH-DLBCL (n = 9), range 96.85%–50%
  MYC mRNA downregulation: 86.71%
MYC mRNA in whole blood; other MYC+ NHL (n = 3), range 53.7%–86.9%
  MYC mRNA downregulation: 71.08%
MYC mRNA in whole blood; DH-DLBCL
  mean fold change mRNA levels of MYC: −3.45 (SD 0.68)
  MYC mRNA fold change: −3.38 (SD 1.07)
MYC mRNA in whole blood; Homo sapiens, PK/PD indirect response model, pooled patient blood data, read-out: model estimated unbound IC50 for MYC mRNA
  IC50: 17.4 to 22 nM
MYC mRNA in whole blood; other MYC+ NHL
  mean fold change mRNA levels of MYC: −2.61 (SD 0.54)
  MYC mRNA fold change: −1.97 (SD 0.75)
[1]; intravenous, 22.5 mg, subject 3, dose lowered from 30 to 22.5 mg, not included in average, read-out: Multiple dose C max
  Cmax: 592 ng/mL
[1]; intravenous, 22.5 mg, subject 3, dose lowered from 30 to 22.5 mg, not included in average, read-out: Multiple dose t1/2 (converted)
  half-life: 2.53 h
[1]; intravenous, 30 mg, patients treated with multiple doses, read-out: mean t1/2 (converted)
  half-life: 5.56 h
[1]; iv, 30 mg, patients, 30 mg i.v. once weekly, read-out: Cmax
  Cmax: 1750 nM
[1]; patients, 30 mg i.v. once weekly, Cmax x fu
  unbound Cmax: 117 nM
[2]
  MCL1 mRNA levels in tumors (in words): reduced by 4 hours postdose
